According to ChEMBL document CHEMBL1201862, “PubChem BioAssay data set” (2004):
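Briefly, cells in 96-well plates were exposed to five compound concentrations for 48 h, and endpoints were estimated by linear interpolation. GI50 is the concentration that inhibits growth by half.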 Active and inactive are the calls of the source. Cut-off read from the data, not from the text of the source: active = GI50 up to about 1.1 µM and inactive = higher.

What was measured:
Assay in all cases: NCI anticancer screen, dose series, 48 h
BT-549 = tested on: BT-549
CCRF-CEM = tested on: CCRF-CEM
DU-145 = tested on: DU-145
HCC 2998 = tested on: HCC 2998
HL-60 = tested on: HL-60
HOP-92 = tested on: HOP-92
KM12 = tested on: KM12
MCF7 = tested on: MCF7
NCI-H226 = tested on: NCI-H226
NCI-H23 = tested on: NCI-H23
OVCAR-3 = tested on: OVCAR-3
OVCAR-5 = tested on: OVCAR-5
OVCAR-8 = tested on: OVCAR-8
PC-3 = tested on: PC-3
SF-268 = tested on: SF-268
SN12C = tested on: SN12C
T47D = tested on: T47D
U-251 = tested on: U-251
UO-31 = tested on: UO-31

| Compound | GI50 (BT-549) | GI50 (CCRF-CEM) | GI50 (DU-145) | GI50 (HCC 2998) | GI50 (HL-60) | GI50 (HOP-92) | GI50 (KM12) | GI50 (MCF7) | GI50 (NCI-H226) | GI50 (NCI-H23) | GI50 (OVCAR-3) | GI50 (OVCAR-5) | GI50 (OVCAR-8) | GI50 (PC-3) | GI50 (SF-268) | GI50 (SN12C) | GI50 (T47D) | GI50 (U-251) | GI50 (UO-31) |
| --- | --- | --- | --- | --- | --- | --- | --- | --- | --- | --- | --- | --- | --- | --- | --- | --- | --- | --- | --- |
| CC(CCOc1ccc2ccc(=O)oc2c1)C1=CC(=O)C(C)(C)O1 (stereo unspecified) | 2.72 µM (inactive) | 0.499 µM (active) | 2.39 µM (inactive) | 2.67 µM (inactive) | 1.85 µM (inactive) | 3.56 µM (inactive) | 2.17 µM (inactive) | 3.61 µM (inactive) | 7.35 µM (inactive) | 2.81 µM (inactive) | 3.22 µM (inactive) | 9.27 µM (inactive) | 1.96 µM (inactive) | 4.03 µM (inactive) | 1.71 µM (inactive) | 1.67 µM (inactive) | 2.02 µM (inactive) | 2.69 µM (inactive) | 3.05 µM (inactive) |
| CCNC(=S)/N=c1\sc(NCC)nc2sc3c(c12)CCN(N1CCc2c(sc4nc(NCC)s/c(=N\C(=S)NCC)c24)C1)C3 | > 100 µM (inactive) | 41.9 µM (inactive) | 77.8 µM (inactive) | > 100 µM (inactive) | 98.2 µM (inactive) | 5.31 µM (inactive) | 40.2 µM (inactive) | > 100 µM (inactive) | 24.9 µM (inactive) | > 100 µM (inactive) | > 100 µM (inactive) | > 100 µM (inactive) | 60.4 µM (inactive) | > 100 µM (inactive) | > 100 µM (inactive) | > 100 µM (inactive) | 42.4 µM (inactive) | 33.3 µM (inactive) | > 100 µM (inactive) |
| O=C(Cc1nccc2c1[nH]c1ccccc12)OC1C#CCSCC#C/C=C\1 (stereo unspecified) | > 100 µM (inactive) | 38.8 µM (inactive) | > 100 µM (inactive) | > 100 µM (inactive) | 57 µM (inactive) | > 100 µM (inactive) | > 100 µM (inactive) | > 100 µM (inactive) | > 100 µM (inactive) | – | 95.9 µM (inactive) | – | > 100 µM (inactive) | > 100 µM (inactive) | > 100 µM (inactive) | > 100 µM (inactive) | 72.1 µM (inactive) | > 100 µM (inactive) | 71.4 µM (inactive) |
| CC(C)(C)OC(=O)N1C(OP(=O)(Oc2ccccc2)Oc2ccccc2)=COc2cccnc21 | 63.7 µM (inactive) | – | > 100 µM (inactive) | 42.1 µM (inactive) | 16.2 µM (inactive) | 26.1 µM (inactive) | 31.4 µM (inactive) | 32.7 µM (inactive) | 69.8 µM (inactive) | 45.5 µM (inactive) | 72.3 µM (inactive) | > 100 µM (inactive) | 43.2 µM (inactive) | 84.5 µM (inactive) | 63.2 µM (inactive) | 70.1 µM (inactive) | 23 µM (inactive) | 40.5 µM (inactive) | 42.9 µM (inactive) |
| CC(C)=CCC(O)[C@](C)(O)[C@H]1[C@H](O)C[C@@]2(C)[C@@H]3CCc4cc(O)c(OC5OC(CO)C(O)C(O)C5O)cc4C3(C)C(=O)C[C@]12C (stereo partly specified) | > 100 µM (inactive) | > 100 µM (inactive) | > 100 µM (inactive) | > 100 µM (inactive) | – | > 100 µM (inactive) | > 100 µM (inactive) | > 100 µM (inactive) | > 100 µM (inactive) | > 100 µM (inactive) | > 100 µM (inactive) | > 100 µM (inactive) | > 100 µM (inactive) | > 100 µM (inactive) | > 100 µM (inactive) | > 100 µM (inactive) | > 100 µM (inactive) | > 100 µM (inactive) | > 100 µM (inactive) |
| O=c1[nH]c2ccc(C(F)(F)F)cc2nc1Cc1ccccc1 | 34 µM (inactive) | 29.4 µM (inactive) | 34.4 µM (inactive) | 24.1 µM (inactive) | 34.8 µM (inactive) | 18.7 µM (inactive) | 31.6 µM (inactive) | 28.7 µM (inactive) | 17.7 µM (inactive) | 19.6 µM (inactive) | – | – | 39.5 µM (inactive) | 26.4 µM (inactive) | 35.2 µM (inactive) | – | 40.5 µM (inactive) | 45.7 µM (inactive) | 37.3 µM (inactive) |
| Cc1nc(-c2cc3c(ccc4ccccc43)oc2=O)cs1 | 23.7 µM (inactive) | > 100 µM (inactive) | > 100 µM (inactive) | > 100 µM (inactive) | > 100 µM (inactive) | 30.2 µM (inactive) | > 100 µM (inactive) | > 100 µM (inactive) | 66.4 µM (inactive) | – | – | > 100 µM (inactive) | 35.5 µM (inactive) | 70.8 µM (inactive) | 35.6 µM (inactive) | > 100 µM (inactive) | > 100 µM (inactive) | 57.9 µM (inactive) | 46.3 µM (inactive) |
| N#CCN1c2ccccc2CCC1Cl (stereo unspecified) | > 10 µM (inactive) | > 10 µM (inactive) | > 10 µM (inactive) | > 10 µM (inactive) | – | > 10 µM (inactive) | > 10 µM (inactive) | > 10 µM (inactive) | > 10 µM (inactive) | > 10 µM (inactive) | > 10 µM (inactive) | > 10 µM (inactive) | > 10 µM (inactive) | > 10 µM (inactive) | > 10 µM (inactive) | > 10 µM (inactive) | > 10 µM (inactive) | > 10 µM (inactive) | > 10 µM (inactive) |
| COc1cc(S(=O)(=O)Nc2ccc(-c3csc(N4C(=O)C(Cl)C4c4cccc(Oc5ccccc5)c4)n3)cc2)ccc1Cl (stereo unspecified) | 21.2 µM (inactive) | 3.31 µM (inactive) | 21.7 µM (inactive) | > 100 µM (inactive) | 20.5 µM (inactive) | 15.3 µM (inactive) | 26.9 µM (inactive) | 37.7 µM (inactive) | 18.8 µM (inactive) | 16 µM (inactive) | 58.5 µM (inactive) | 38.5 µM (inactive) | 30.3 µM (inactive) | 17.1 µM (inactive) | 15 µM (inactive) | 15.5 µM (inactive) | 24.4 µM (inactive) | – | 21.2 µM (inactive) |
| O=c1c(-c2ccc(Cl)cc2)nnc2n(Cc3ccccc3)c3ccccc3n12 | 22 µM (inactive) | > 100 µM (inactive) | > 100 µM (inactive) | > 100 µM (inactive) | 50 µM (inactive) | 14.7 µM (inactive) | 28.9 µM (inactive) | 60.7 µM (inactive) | 23.7 µM (inactive) | 37 µM (inactive) | – | 48.9 µM (inactive) | 45.3 µM (inactive) | 30.1 µM (inactive) | 23.3 µM (inactive) | 82.2 µM (inactive) | 67.9 µM (inactive) | 23.7 µM (inactive) | 44.4 µM (inactive) |
| COc1cc([C@@H]2c3cc4c(cc3[C@@H](Nc3ccc(/N=C\c5ccc(C(=O)O[C@@H](C(=O)O[C@H]6C[C@@]7(O)[C@@H](OC(=O)c8ccccc8)[C@@H]8[C@]9(OC(C)=O)CO[C@@H]9C[C@H](O)[C@@]8(C)C(=O)[C@H](OC(C)=O)C(=C6C)C7(C)C)[C@@H](NC(=O)c6ccccc6)c6ccccc6)cc5)cc3)[C@H]3COC(=O)[C@H]23)OCO4)cc(OC)c1O | 9.48 µM (inactive) | 0.544 µM (active) | 2.68 µM (inactive) | 14.9 µM (inactive) | 0.697 µM (active) | 6.38 µM (inactive) | 15.8 µM (inactive) | 0.384 µM (active) | 1.57 µM (inactive) | 2.75 µM (inactive) | 15.9 µM (inactive) | 20.2 µM (inactive) | 6.15 µM (inactive) | > 46.1 µM (inactive) | 4.34 µM (inactive) | 2.88 µM (inactive) | 11.4 µM (inactive) | 3.34 µM (inactive) | – |
